US20130209582A1, “HYDROGEN IODIDE-[…] FOOD AND HYDROGEN IODIDE-CONTAINING DRUG, AND METHOD FOR PRODUCING SAME” (priority 2010, published 2013)

Assay: Gastrointestinal absorption and retention in the thyroid gland after taking hydrogen iodide into the body
Assay type: in vivo
Settings: through gastrointestinal absorption
Procedure: When taking hydrogen iodide into the body, the hydrogen iodide reaches to the thyroid gland within 30 minutes through gastrointestinal absorption. Since the hydrogen iodide is retained in the thyroid gland for about two hours, it is preferable to take the health food or the pharmaceutical product every two hours in a serious case. Moreover, it is preferable to take them not in large quantities at one time, but in small quantities frequently on an empty stomach.

SMILES: I [hydrogen iodide]
- time to reach the thyroid gland: ≤ 30 min
